# According to patent US9708314B2, “Heterocyclic amide compound” (NISSAN CHEMICAL INDUSTRIES, LTD., priority 2013, dated 2017):
# How the values were obtained:
# Assay type in all cases: in vivo
# [1] = tested on: Echinochloa oryzacola Vasing.; assay: Test Example 1: herbicidal activity, application before weed generation in submerged conditions; conditions: Application herbicide amount 320 g/ha; Seventeenth Table
# Summary of the method: (§1)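 Submerged pot test: alluvial soil, 4 cm water, seeds sown mixed, 2.5-leaf rice transplanted; emulsion in water applied to surface day of sowing, dose g/ha; greenhouse 25–30° C.; 3 wk; 0–5 rating.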
# [2] = tested on: Monochoria vaginalis; assay: as above; conditions: Application herbicide amount 320 g/ha; Seventeenth Table
# Summary of the method: as §1
# [3] = tested on: Scirpus juncoides; assay: as above; conditions: Application herbicide amount 320 g/ha; Seventeenth Table
# Summary of the method: as §1
# [4] = tested on: Setaria viridis; assay: Test Example 4: herbicidal effect by application to foliage (diluvial soil, plastic box); conditions: application to foliage, application herbicide amount 320 g/ha
# Summary of the method: (§2)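 Read-out is a 0–5 visual grade of herbicidal ratio (5: ≥90%, almost withered; 0: ≤5%) taken three weeks after treatment. Compound was applied as a diluted emulsion to stem and leaf parts of 14-day greenhouse-grown plants (25° C. to 30° C.) at rates expressed as g/ha.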
# [5] = tested on: Galium spurium; assay: as above; conditions: application to foliage, application herbicide amount 320 g/ha
# Summary of the method: as §2
# [6] = tested on: Abutilon theophrasti; assay: as above; conditions: application to foliage, application herbicide amount 320 g/ha
# Summary of the method: as §2
# [7] = tested on: Amaranthus retroflexus; assay: as above; conditions: application to foliage, application herbicide amount 320 g/ha
# Summary of the method: as §2
# [8] = tested on: Digitaria ciliaris; assay: as above; conditions: application to foliage, application herbicide amount 320 g/ha
# Summary of the method: as §2
# [9] = tested on: Avena fatua; assay: as above; conditions: application to foliage, application herbicide amount 320 g/ha
# Summary of the method: as §2
# [10] = tested on: Chenopodium album; assay: as above; conditions: application to foliage, application herbicide amount 320 g/ha
# Summary of the method: as §2
# [11] = tested on: Echinochloa crus-galli var. crus-galli; assay: as above; conditions: application to foliage, application herbicide amount 320 g/ha
# Summary of the method: as §2
# [12] = tested on: Alopecurus myosuroides; assay: as above; conditions: application to foliage, application herbicide amount 320 g/ha
# Summary of the method: as §2
# [13] = tested on: Stellaria media; assay: as above; conditions: application to foliage, application herbicide amount 320 g/ha
# Summary of the method: as §2
# [14] = tested on: Lolium multiflorum Lam.; assay: as above; conditions: application to foliage, application herbicide amount 320 g/ha
# Summary of the method: as §2
# [15] = tested on: Apera spica-venti.; assay: as above; conditions: application to foliage, application herbicide amount 320 g/ha
# Summary of the method: as §2
# [16] = tested on: Veronica persica; assay: as above; conditions: application to foliage, application herbicide amount 320 g/ha
# Summary of the method: as §2
# [17] = tested on: Beta vulgaris ssp. vulgaris; assay: Test Example 4: effect on crop by application to foliage (diluvial soil, plastic box); conditions: application to foliage, application herbicide amount 320 g/ha
# Summary of the method: as §2
# [18] = tested on: Zea mays; assay: as above; conditions: application to foliage, application herbicide amount 320 g/ha
# Summary of the method: as §2
# [19] = tested on: Brassica campestris L.; assay: as above; conditions: application to foliage, application herbicide amount 320 g/ha
# Summary of the method: as §2
# [20] = tested on: directly sowed Oryza sativa; assay: as above; conditions: application to foliage, application herbicide amount 320 g/ha
# Summary of the method: as §2
# [21] = tested on: Triticum aestivum; assay: as above; conditions: application to foliage, application herbicide amount 320 g/ha
# Summary of the method: as §2
# [22] = tested on: Glycine max; assay: as above; conditions: application to foliage, application herbicide amount 320 g/ha
# Summary of the method: as §2
Structure (SMILES),A: Echinochloa oryzicola Vasing. (herbicidal effect grade) [1],C: Monochoria vaginalis (herbicidal effect grade) [2],B: Scirpus juncoides (herbicidal effect grade) [3],G: herbicidal effect on Setaria viridis [4],Q: herbicidal effect on Galium spurium [5],M: herbicidal effect on Abutilon theophrasti [6],N: herbicidal effect on Amaranthus retroflexus [7],F: herbicidal effect on Digitaria ciliaris [8],I: herbicidal effect on Avena fatua [9],O: herbicidal effect on Chenopodium album [10],H: herbicidal effect on Echinochloa crus-galli var. crus-galli [11],J: herbicidal effect on Alopecurus myosuroides [12],P: herbicidal effect on Stellaria media [13],K: herbicidal effect on Lolium multiflorum Lam. [14],L: herbicidal effect on Apera spica-venti. [15],R: herbicidal effect on Veronica persica [16],"f: effect on crop, Beta vulgaris ssp. vulgaris [17]","c: effect on crop, Zea mays [18]","g: effect on crop, Brassica campestris L. [19]","b: effect on crop, directly sowed Oryza sativa [20]",also measured
CCOCc1nnc2c(C(=O)Nc3nnnn3C)ccc(C(F)(F)F)n12 [2-026],5 (Herbicidal ratio of 90% or more (almost completely withered)),4 (Herbicidal ratio of 70% or more and less than 90%),5 (Herbicidal ratio of 90% or more (almost completely withered)),4 (Herbicidal ratio of 70% or more and less than 90%),4 (Herbicidal ratio of 70% or more and less than 90%),5 (Herbicidal ratio of 90% or more (almost completely withered)),5 (Herbicidal ratio of 90% or more (almost completely withered)),5 (Herbicidal ratio of 90% or more (almost completely withered)),3 (Herbicidal ratio of 40% or more and less than 70%),5 (Herbicidal ratio of 90% or more (almost completely withered)),5 (Herbicidal ratio of 90% or more (almost completely withered)),4 (Herbicidal ratio of 70% or more and less than 90%),5 (Herbicidal ratio of 90% or more (almost completely withered)),3 (Herbicidal ratio of 40% or more and less than 70%),3 (Herbicidal ratio of 40% or more and less than 70%),5 (Herbicidal ratio of 90% or more (almost completely withered)),5 (Herbicidal ratio of 90% or more (almost completely withered)),2 (Herbicidal ratio of 20% or more and less than 40%),5 (Herbicidal ratio of 90% or more (almost completely withered)),5 (Herbicidal ratio of 90% or more (almost completely withered)),"e: effect on crop, Triticum aestivum [21]: 3 (Herbicidal ratio of 40% or more and less than 70%); d: effect on crop, Glycine max [22]: 5 (Herbicidal ratio of 90% or more (almost completely withered))"
Cn1nnnc1NC(=O)c1ccc(C(F)(F)F)n2c(C(C)(C)C)nnc12 [2-027],5 (Herbicidal ratio of 90% or more (almost completely withered)),5 (Herbicidal ratio of 90% or more (almost completely withered)),5 (Herbicidal ratio of 90% or more (almost completely withered)),5 (Herbicidal ratio of 90% or more (almost completely withered)),4 (Herbicidal ratio of 70% or more and less than 90%),5 (Herbicidal ratio of 90% or more (almost completely withered)),5 (Herbicidal ratio of 90% or more (almost completely withered)),5 (Herbicidal ratio of 90% or more (almost completely withered)),3 (Herbicidal ratio of 40% or more and less than 70%),5 (Herbicidal ratio of 90% or more (almost completely withered)),5 (Herbicidal ratio of 90% or more (almost completely withered)),4 (Herbicidal ratio of 70% or more and less than 90%),5 (Herbicidal ratio of 90% or more (almost completely withered)),3 (Herbicidal ratio of 40% or more and less than 70%),4 (Herbicidal ratio of 70% or more and less than 90%),5 (Herbicidal ratio of 90% or more (almost completely withered)),5 (Herbicidal ratio of 90% or more (almost completely withered)),0 (Herbicidal ratio of 5% or less (almost no effect)),4 (Herbicidal ratio of 70% or more and less than 90%),4 (Herbicidal ratio of 70% or more and less than 90%),"e: effect on crop, Triticum aestivum [21]: 3 (Herbicidal ratio of 40% or more and less than 70%); d: effect on crop, Glycine max [22]: 1 (Herbicidal ratio of 5% or more and less than 20%)"
